In brackets after ≈: the same amount, converted by molar mass. Read-outs that look alike come from different tables or passages of the source.
Tested on: A. non-baumannii isolates (n = 87)
Assay: MIC, broth microdilution (EUCAST), A. non-baumannii isolates
Format: cell-based, Acinetobacter spp. (non-baumannii)
Procedure, shortened: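 Broth microdilution per EUCAST v.15 guidelines on clinical Acinetobacter isolates from a Spanish 2020 multicenter collection; enmetazobactam also tested alone. A. baumannii ATCC 19606 served as reference strain, in duplicate assays.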

SMILES: CC1(C)[C@H](C(=O)O)N2C(=O)C[C@H]2S1(=O)=O [sulbactam]
- MIC distribution 0.12: 2.3
- MIC distribution 0.25: 8.0
- MIC distribution 0.5: 44.8
- MIC distribution 1: 82.8
- MIC distribution 2: 97.7
- MIC distribution 4: 100
- MIC distribution 8: 100
- MIC distribution 16: 100
- MIC distribution 32: 100
- MIC distribution ≤0.06: 1.1
- MIC (Acinetobacter baylyi, isolate NO-Ab27, Acinetobacter baylyi, in combinations ETZ fixed at 8 mg/L, read-out: MIC): 1 µg/mL
- MIC (Acinetobacter beijerinckii, isolate NO-Ab122, Acinetobacter beijerinckii, in combinations ETZ fixed at 8 mg/L, read-out: MIC): 2 µg/mL
- MIC (Acinetobacter bereziniae, isolate NO-Ab70, Acinetobacter bereziniae, in combinations ETZ fixed at 8 mg/L, read-out: MIC): 0.5 µg/mL
- MIC (Acinetobacter bereziniae, isolate NO-Ab84, Acinetobacter bereziniae, in combinations ETZ fixed at 8 mg/L, read-out: MIC): 1 µg/mL
- MIC (Acinetobacter bereziniae, isolate NO-Ab104, Acinetobacter bereziniae, in combinations ETZ fixed at 8 mg/L, read-out: MIC): 0.5 µg/mL
- MIC (Acinetobacter bereziniae, isolate NO-Ab114, Acinetobacter bereziniae, in combinations ETZ fixed at 8 mg/L, read-out: MIC): 1 µg/mL
- MIC (Acinetobacter bereziniae, isolate NO-Ab115, Acinetobacter bereziniae, in combinations ETZ fixed at 8 mg/L, read-out: MIC): 1 µg/mL
- MIC (Acinetobacter bereziniae, isolate NO-Ab116, Acinetobacter bereziniae, in combinations ETZ fixed at 8 mg/L, read-out: MIC): 0.5 µg/mL
- MIC (Acinetobacter bereziniae, isolate NO-Ab117, Acinetobacter bereziniae, in combinations ETZ fixed at 8 mg/L, read-out: MIC): 1 µg/mL
- MIC (Acinetobacter bereziniae, isolate NO-Ab129, Acinetobacter bereziniae, in combinations ETZ fixed at 8 mg/L, read-out: MIC): 1 µg/mL
- MIC (Acinetobacter bereziniae, isolate NO-Ab156, Acinetobacter bereziniae, in combinations ETZ fixed at 8 mg/L, read-out: MIC): 1 µg/mL
- MIC (Acinetobacter calcoaceticus, isolate NO-Ab85, Acinetobacter calcoaceticus, in combinations ETZ fixed at 8 mg/L, read-out: MIC): 2 µg/mL
- MIC (Acinetobacter calcoaceticus, isolate NO-Ab94, Acinetobacter calcoaceticus, in combinations ETZ fixed at 8 mg/L, read-out: MIC): 2 µg/mL
- MIC (Acinetobacter calcoaceticus, isolate NO-Ab108, Acinetobacter calcoaceticus, in combinations ETZ fixed at 8 mg/L, read-out: MIC): 4 µg/mL
- MIC (Acinetobacter calcoaceticus, isolate NO-Ab161, Acinetobacter calcoaceticus, in combinations ETZ fixed at 8 mg/L, read-out: MIC): 4 µg/mL
- MIC (Acinetobacter calcoaceticus, isolate NO-Ab198, Acinetobacter calcoaceticus, in combinations ETZ fixed at 8 mg/L, read-out: MIC): 2 µg/mL
- MIC (Acinetobacter calcoaceticus, isolate NO-Ab205, Acinetobacter calcoaceticus, in combinations ETZ fixed at 8 mg/L, read-out: MIC): 2 µg/mL
- MIC (Acinetobacter calcoaceticus, isolate NO-Ab211, Acinetobacter calcoaceticus, in combinations ETZ fixed at 8 mg/L, read-out: MIC): 1 µg/mL
- MIC (Acinetobacter courvalinii, isolate NO-Ab216, Acinetobacter courvalinii, in combinations ETZ fixed at 8 mg/L, read-out: MIC): 0.5 µg/mL
- MIC (Acinetobacter dispersus, isolate NO-Ab2, Acinetobacter dispersus, in combinations ETZ fixed at 8 mg/L, read-out: MIC): 0.5 µg/mL
- MIC (Acinetobacter guillouiae, isolate NO-Ab69, Acinetobacter guillouiae, in combinations ETZ fixed at 8 mg/L, read-out: MIC): 1 µg/mL
- MIC (Acinetobacter guillouiae, isolate NO-Ab74, Acinetobacter guillouiae, in combinations ETZ fixed at 8 mg/L, read-out: MIC): 0.5 µg/mL
- MIC (Acinetobacter haemolyticus, isolate NO-Ab92, Acinetobacter haemolyticus, in combinations ETZ fixed at 8 mg/L): 0.5 µg/mL
- MIC (Acinetobacter haemolyticus, isolate NO-Ab177, Acinetobacter haemolyticus, in combinations ETZ fixed at 8 mg/L): 0.5 µg/mL
- MIC (Acinetobacter haemolyticus, isolate NO-Ab217, Acinetobacter haemolyticus, in combinations ETZ fixed at 8 mg/L): 0.25 µg/mL
- MIC (Acinetobacter johnsonii, isolate NO-Ab101, Acinetobacter johnsonii, in combinations ETZ fixed at 8 mg/L, read-out: MIC): 1 µg/mL
- MIC (Acinetobacter junii, isolate NO-Ab76, Acinetobacter junii, in combinations ETZ fixed at 8 mg/L, read-out: MIC): 0.5 µg/mL
- MIC (Acinetobacter junii, isolate NO-Ab77, Acinetobacter junii, OXA-24/40, in combinations ETZ fixed at 8 mg/L, read-out: MIC): 0.5 µg/mL
- MIC (Acinetobacter lactucae, isolate NO-Ab60, Acinetobacter dijkshoorniae, in combinations ETZ fixed at 8 mg/L, read-out: MIC): 1 µg/mL
- MIC (Acinetobacter lactucae, isolate NO-Ab63, Acinetobacter dijkshoorniae, in combinations ETZ fixed at 8 mg/L, read-out: MIC): 1 µg/mL
- MIC (Acinetobacter lactucae, isolate NO-Ab65, Acinetobacter dijkshoorniae, in combinations ETZ fixed at 8 mg/L, read-out: MIC): 1 µg/mL
- MIC (Acinetobacter lactucae, isolate NO-Ab86, Acinetobacter dijkshoorniae, in combinations ETZ fixed at 8 mg/L, read-out: MIC): 1 µg/mL
- MIC (Acinetobacter lactucae, isolate NO-Ab88, Acinetobacter dijkshoorniae, in combinations ETZ fixed at 8 mg/L, read-out: MIC): 0.5 µg/mL
- MIC (Acinetobacter lactucae, isolate NO-Ab91, Acinetobacter dijkshoorniae, in combinations ETZ fixed at 8 mg/L, read-out: MIC): 1 µg/mL
- MIC (Acinetobacter lactucae, isolate NO-Ab121, Acinetobacter dijkshoorniae, in combinations ETZ fixed at 8 mg/L, read-out: MIC): 2 µg/mL
- MIC (Acinetobacter lactucae, isolate NO-Ab125, Acinetobacter dijkshoorniae, in combinations ETZ fixed at 8 mg/L, read-out: MIC): 1 µg/mL
- MIC (Acinetobacter lactucae, isolate NO-Ab160, Acinetobacter dijkshoorniae, in combinations ETZ fixed at 8 mg/L, read-out: MIC): 0.5 µg/mL
- MIC (Acinetobacter nosocomialis, isolate NO-Ab43, Acinetobacter nosocomialis, in combinations ETZ fixed at 8 mg/L, read-out: MIC): 2 µg/mL
- MIC (Acinetobacter nosocomialis, isolate NO-Ab68, Acinetobacter nosocomialis, OXA-24/40, in combinations ETZ fixed at 8 mg/L, read-out: MIC): 1 µg/mL
- MIC (Acinetobacter nosocomialis, isolate NO-Ab98, Acinetobacter nosocomialis, in combinations ETZ fixed at 8 mg/L, read-out: MIC): 2 µg/mL
- MIC (Acinetobacter nosocomialis, isolate NO-Ab208, Acinetobacter nosocomialis, in combinations ETZ fixed at 8 mg/L, read-out: MIC): 0.5 µg/mL
- MIC (Acinetobacter pittii, MBC set, isolate NO-Ab89, A. pittii, read-out: MIC): 0.5 µg/mL (≈ 2.14 µM)
- MIC (Acinetobacter pittii, isolate NO-Ab59, Acinetobacter pittii, in combinations ETZ fixed at 8 mg/L, read-out: MIC): 1 µg/mL
- MIC (Acinetobacter pittii, isolate NO-Ab66, Acinetobacter pittii, in combinations ETZ fixed at 8 mg/L, read-out: MIC): 1 µg/mL
- MIC (Acinetobacter pittii, isolate NO-Ab73, Acinetobacter pittii, in combinations ETZ fixed at 8 mg/L, read-out: MIC): 0.5 µg/mL
- MIC (Acinetobacter pittii, isolate NO-Ab75, Acinetobacter pittii, in combinations ETZ fixed at 8 mg/L, read-out: MIC): 1 µg/mL
- MIC (Acinetobacter pittii, isolate NO-Ab78, Acinetobacter pittii, in combinations ETZ fixed at 8 mg/L, read-out: MIC): 0.5 µg/mL

— PMC12888861, “Antibacterial activity of enmetazobactam against Acinetobacter spp.: a molecular dissection of mechanism of action and resistance determinants” (Antimicrobial Agents and Chemotherapy, 2025)
